Data on seven compounds can be found in ChEMBL document CHEMBL6182852, “Discovery of ATP competitive PDHK1/2 dual inhibitors” (Bioorg Med Chem Lett, 2025).

Assay [1] is described as follows: Cytotoxicity against human PBMC cells.
Assay [2] can be described thus: Inhibition of LPS-induced TNF release in human PBMC cells. Format: functional, cell-based.
Assay [3] addresses [Pyruvate dehydrogenase (acetyl-transferring)] kinase isozyme 2, mitochondrial (Homo sapiens, UniProt Q15119). As to the kind of experiment: Inhibition of PDHK2 (unknown origin).
Assay [4] can be described thus: Inhibition of E1 PDHK (unknown origin) phosphorylation at S232 residues. Further details: species or system Homo sapiens.
For assay [5], the target named is [Pyruvate dehydrogenase (acetyl-transferring)] kinase isozyme 1, mitochondrial (Homo sapiens, UniProt Q15118). As to the kind of experiment: Inhibition of PDHK1 (unknown origin) in presence of 0.5 uM ATP.
[Pyruvate dehydrogenase (acetyl-transferring)] kinase isozyme 1, mitochondrial, sequence (Q15118 whole entry): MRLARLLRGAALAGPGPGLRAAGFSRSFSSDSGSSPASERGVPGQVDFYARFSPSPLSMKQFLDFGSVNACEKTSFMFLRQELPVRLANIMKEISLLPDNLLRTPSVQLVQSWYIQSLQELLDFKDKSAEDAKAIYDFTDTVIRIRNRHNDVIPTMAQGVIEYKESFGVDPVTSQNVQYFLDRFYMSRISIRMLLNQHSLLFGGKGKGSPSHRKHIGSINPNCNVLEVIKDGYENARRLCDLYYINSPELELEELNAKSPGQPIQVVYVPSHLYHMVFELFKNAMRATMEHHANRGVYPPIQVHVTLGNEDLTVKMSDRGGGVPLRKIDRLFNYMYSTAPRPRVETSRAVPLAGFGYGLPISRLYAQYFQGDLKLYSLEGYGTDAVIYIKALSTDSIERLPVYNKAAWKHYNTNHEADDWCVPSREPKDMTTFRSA

For orientation: CC50 means the concentration that lowers cell viability or growth by half. Broadly, the IC50 is the concentration that gives 50% inhibition. For `CCNc1cc(F)cc2c1[nH]c(=O)n2-c1c(C)cc(Oc2cccc(C(=O)O)c2)cc1Cl`, the CC50 in assay [1] was > 100 µM. The figures for the 50% inhibitory concentration (IC50) in assay [2], in assay [3] and in assay [4] were 71 µM, 0.034 µM and > 100 µM, respectively.
In the case of `CCNc1cc(F)cc2c1[nH]c(=O)n2-c1ccc(Oc2cccc(S(=O)(=O)F)c2)cc1`, in assay [1], the CC50 was > 100 µM. The IC50 in assay [2] amounted to 24.5 µM; in assay [3], 0.12 µM; in assay [4] it was 5.3 µM.
The compound `CCNc1cc(F)cc2c1NC(=O)C2(C)N1CCC[C@@H](Nc2ccc(C#N)nc2)C1` (mixture of isomers) displayed a CC50 in assay [1] of 56.9 µM. In assay [2], this compound returned an IC50 of 4.5 µM.
Turning to `CCNc1cc(F)cc2c1NC(=O)C2(C)N1CCC[C@@H](Nc2ccc(C(=O)O)c(Cl)c2)C1` (stereo partly drawn), the CC50 in assay [1] was > 100 µM. For the same compound, the IC50 in assay [2] was > 100 µM.
As for `CSc1cc(-c2nccs2)n[nH]1`, in assay [5], the concentration for half-maximal inhibition (IC50) was > 100 µM.
In the case of `CCNc1cc(F)cc2c1NC(=O)C2(C)N1CCCCC1` (racemic), in assay [1], the CC50 was > 100 µM. For the same compound, the IC50 in assay [2] worked out at 49 µM.
For the compound `CCNc1cc(F)cc2c1NC(=O)C2(CC)N1CCC[C@@H](NC(=O)C2CC3(C2)CN(C#N)C3)C1` (mixture of isomers), the CC50 in assay [1] is > 100 µM. Besides, the IC50 in assay [2] was 0.9 µM; in assay [3], 0.015 µM.
